Reference: patent US10399949B2, “NK1 receptor antagonist” (KISSEI PHARMACEUTICAL CO., LTD., priority 2015, dated 2019)

Assays:
human CYP3A4 = target: T1, human CYP3A4 (Homo sapiens, UniProt P08684); experiment: Inhibitory effect on CYP3A4 (Luciferin-IPA); format: in vitro ADME; conditions: test compound 10 μM, 30-minutes pre-incubation, Luciferin-IPA 3 μM
T1 construct: purchased BD Biosciences
Method: Inhibitory Effect on CYP3A4
The dimethyl sulfoxide (DMSO) solution of the test compound with a concentration 1000 times higher than the evaluation concentration was prepared, and a reaction solution was prepared by diluting the solution. Enzyme reaction was performed by incubating in a potassium phosphate buffer solution (pH 7.4) containing 1 μM to 10 μM test compound, 3.2 mM magnesium chloride, 0.2 pmol human CYP3A4 (BD Biosciences), 0.5 mM reduced nicotinamide adenine dinucleotide phosphate (NADPH) and 3 μM Luciferin-IPA (Promega) at 37° C. for 10 minutes. The volume of the reaction solution was 50 μL/well. The 30-minutes pre-incubation group was incubated at 37° C. for 30 minutes before adding the substrate, the Luciferin-IPA solution (12.5 μL/well). At the end of the enzyme reaction, 50 μL/well of a Luciferin detection reagent (Promega) was added to the wells, and the plate was left at room temperature for 20 minutes. Then, the emission intensities were measured with Infinite M1000 (TECAN), and the enzyme activities (%) relative to the value of the group to which the test compound was not added. As a comparative example, aprepitant, which is an NK1 receptor antagonist, was tested in the same manner.
Test was measured by the above test method, and the results are shown in Table 9 when the concentration of the test compound was 10 μM. In the table, Ex. No. means the Example number, and Pre-incubation (30 min) (%) means the enzyme activities (%) of the 30-minutes pre-incubation groups using the test compounds.

human NK1 receptor [1] = target: T2, human NK1 receptor (Homo sapiens, UniProt P25103); experiment: Affinity for human NK1 receptor (125I-substance P receptor binding test, membrane fraction); conditions: membrane fraction of human NK1 receptor-expressing 293T cells, room temperature 60 minutes, read-out: pIC50 (inverse logarithm of the concentration required for 50% inhibition of 125I-substance P binding) (converted)
T2 construct: expressed in transfected cells; host or cells: 293T cells (RIKEN), transient transfection with pcDNA3.1(-) plasmid
Method: Affinity for Human NK1 Receptor
(3) Measurement of Binding Affinity to Human NK1 Receptor
(3-1) Preparation of Membrane Fraction from Human NK1 Receptor-Expressing Cells
Human NK1 receptor-expressing cells were prepared in a 175 cm^2 culture flask (Nippon Becton Dickinson). The formation of a complex of the human NK1 receptor expression plasmid and Lipofectamine 2000 was performed by calculating the culture area ratio and increasing the scale of the method described in the above 2-4 by the ratio. The human NK1 receptor-expressing cells were collected in a buffer solution for the membrane fraction preparation (50 mM Tris (Wako Pure Chemical), 120 mM sodium chloride (Wako Pure Chemical Industries), 5 mM potassium chloride (Wako Pure Chemical Industries), 1 mM ethylenediaminetetraacetic acid (Sigma), 0.002 mg/mL chymostatin (Peptide Institute), 0.04 mg/bacitracin (Wako Pure Chemical Industries), 0.005 mg/mL phosphoramidon (Peptide Institute) and 0.5 mM phenylmethylsulfonyl fluoride (Wako Pure Chemical Industries), pH7.4) and centrifuged at 1,880 g for 10 minutes, and the cell sediment was suspended in the buffer solution for the membrane fraction preparation. After freezing and thawing the cells once, the cells were homogenized using a Dounce-type homogenizer (cooled on ice, 1000 rpm, 20 times). The homogenized cell suspension was centrifuged at 20,000 rpm for 10 minutes, and the supernatant was removed to obtain cell sediment. The cell sediment was suspended again in the buffer solution for the membrane fraction preparation and homogenized using a Dounce-type homogenizer (cooled on ice, 1000 rpm, 30 times). The cell suspension was centrifuged at 20,000 rpm for 10 minutes, and the supernatant was removed to obtain cell sediment. The same homogenization and centrifugation were repeated again, and final cell sediment was obtained. The final cell sediment was suspended in a buffer solution for the receptor binding test (50 mM Tris (Wako Pure Chemical Industries), 3 mM manganese chloride (Wako Pure Chemical Industries), 0.002 mg/mL chymostatin (Peptide Institute), 0.04 mg/bacitracin (Wako Pure Chemical Industries) and 0.02% bovine serum albumin (Sigma), pH 7.4), and the protein concentration was measured using BCA Protein Assay Kit (Pierce).
(3-2) Receptor Binding Test
The buffer solution for the receptor binding test was dispensed to the wells of a 96-well assay plate (Greiner) at 22.5 μL/well. DMSO solutions of a test compound, which were prepared at an 80-time higher concentration using 100% dimethyl sulfoxide (DMSO), were added to the wells at 2.5 μL/well (final concentrations of 1 nM to 100 nM), and the solutions were mixed. As a radiolabeled ligand, ^125I-substance P (Substance P, [^125I]Tyr^8-, PerkinElmer) was used. ^125I-substance P was diluted with the buffer solution for the receptor binding test to a concentration resulting in […] and added to the 96-well assay plate, and the solutions were mixed. The membrane fraction prepared from the human NK1 receptor-expressing cells was diluted with the buffer solution for the receptor binding test to a concentration resulting in 8 to 10 μg/well, suspended until the suspension became in such a homogenous state that the suspension could flow through a 27G injection needle smoothly and then added to the 96-well assay plate at 150 μL/well. Then, the plate was incubated at room temperature for 60 minutes while shaking the plate. […]

human NK1 receptor [2] = target: T2, human NK1 receptor; experiment: Inhibitory effect on human NK1 receptor (substance P-induced increase in intracellular calcium concentration); format: cell-based; conditions: HEK-293T; substance P 0.1 μM; compound 1 μM; human NK1 receptor-expressing 293T cells; vehicle = 100%; read-out: SPRR (%) (Substance P-Response Remaining, intracellular calcium concentration)
Method: Inhibitory Effect on Human NK1 Receptor
(1) Preparation of Human NK1 Receptor-Expressing Cells
Human NK1 receptor-expressing cells were prepared by the same methods as those described in 2-3 and 2-4 of Test Example 1.
(2) Study on Inhibitory Effect on Increase in Intracellular Calcium Concentration
The human NK1 receptor-expressing cells were washed with 300 μL/well of a washing solution (20 mM HEPES/Hanks Balanced Salt Solution (HBSS) pH7.3). A fluorescent calcium indicator (Fluo-4 Direct Calcium Assay Kit, Life Technologies, containing 0.42 mM probenecid and 0.1% bovine serum albumin, prepared according to the protocol of the product) was added to the wells at 150 μL/well, and the plate was incubated at 37° C. for 30 minutes in an incubator. Then, DMSO solutions of a test compound, which were prepared at an 80-time higher concentration using 100% dimethyl sulfoxide (DMSO), were added to the wells at 2.5 μL/well (final concentrations of 0.1, 1 and 10 μM), and the solutions were mixed. Then, the plate was further incubated at 37° C. for 30 minutes in an incubator. After 30 minutes, the intracellular calcium concentrations were measured immediately.
The intracellular calcium concentrations were each measured as a fluorescent signal using FDSS® 7000 (Hamamatsu Photonics). A substance P (Peptide Institute, Inc.) solution which was prepared at 0.4 μM or 4 μM using an assay buffer (20 mM HEPES/Hanks Balanced Salt Solution (HBSS) pH 7.3 containing 0.1% bovine serum albumin) was added automatically to each well at 50 μL/well (final concentration of 0.1 or 1 μM) 10 seconds after starting reading, and the fluorescent signal was measured up to 120 seconds.
The intracellular calcium concentration (%) of the cells to which a test compound was added was calculated by the equation below, where the fluorescent signal of the group to which the vehicle (DMSO) was added was regarded as 100%, and the fluorescent signal before the addition of substance P was regarded as 0%. Intracellular calcium concentration (%)=(Fluorescent signal of test compound addition group)/(Fluorescent signal of vehicle addition group)×100
The intracellular calcium concentration (%) calculated was regarded as the remaining agonist activity of substance P (Substance P-Response Remaining: SPRR). In the table, Ex. No. means the Example number. SPRR (%) means the value obtained when the concentration of substance P was 0.1 μM and the concentration of the compound was 1 μM.

T2 sequence (P25103 whole entry): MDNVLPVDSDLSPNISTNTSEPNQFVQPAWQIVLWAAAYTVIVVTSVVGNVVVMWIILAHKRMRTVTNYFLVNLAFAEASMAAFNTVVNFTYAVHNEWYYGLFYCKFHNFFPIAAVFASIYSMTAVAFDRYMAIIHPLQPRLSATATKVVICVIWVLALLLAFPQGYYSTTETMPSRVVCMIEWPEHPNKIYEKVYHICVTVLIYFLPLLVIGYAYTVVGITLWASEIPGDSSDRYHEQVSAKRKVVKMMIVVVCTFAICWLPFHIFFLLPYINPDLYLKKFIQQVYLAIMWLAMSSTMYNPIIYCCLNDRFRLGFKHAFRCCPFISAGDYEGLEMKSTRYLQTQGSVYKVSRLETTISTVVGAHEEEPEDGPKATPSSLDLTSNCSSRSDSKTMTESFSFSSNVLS
T1 sequence (P08684 whole entry): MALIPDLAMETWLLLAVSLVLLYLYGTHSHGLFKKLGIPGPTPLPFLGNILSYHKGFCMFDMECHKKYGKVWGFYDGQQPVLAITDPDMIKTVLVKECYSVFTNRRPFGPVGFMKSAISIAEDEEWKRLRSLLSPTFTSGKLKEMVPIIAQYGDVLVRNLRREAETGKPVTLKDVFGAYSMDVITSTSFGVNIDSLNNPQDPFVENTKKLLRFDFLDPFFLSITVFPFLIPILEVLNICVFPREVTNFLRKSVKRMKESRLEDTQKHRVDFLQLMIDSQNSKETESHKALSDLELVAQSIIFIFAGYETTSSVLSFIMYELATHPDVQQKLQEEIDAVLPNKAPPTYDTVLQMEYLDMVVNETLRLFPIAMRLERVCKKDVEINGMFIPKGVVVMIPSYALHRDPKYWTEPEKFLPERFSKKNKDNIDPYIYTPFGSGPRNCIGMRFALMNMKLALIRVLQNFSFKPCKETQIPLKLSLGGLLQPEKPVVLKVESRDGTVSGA

SMILES | Preincubation (30 min) (%) (enzyme activities relative to group without test compound) (human CYP3A4) | IC50 (human NK1 receptor [1]) [nM] | remaining activity at 1 µM (human NK1 receptor [2]) [%]
C[C@@H](O[C@H]1OCCN(Cc2n[nH]c(=O)[nH]2)[C@H]1c1ccc(F)cc1)c1cc(C(F)(F)F)cc(C(F)(F)F)c1 [Aprepitant, aprepitant, reference compound] | 1.3 |  | 
Cc1cc(F)ccc1[C@H]1CN(Cc2ccc(CC(=O)O)cc2)CCN1C(=O)N(C)[C@H](C)c1cc(C(F)(F)F)cc(C(F)(F)F)c1 [Example 9, {4-[(S)-4-{[(R)-1-(3,5-Bistrifluoromethylphenyl)ethyl]methylcarbamoyl}-3-(4-fluoro-2-methylphenyl)piperazin-1-ylmethyl]phenyl}acetic acid] |  | 1.55 | 38
Cc1cc(F)ccc1[C@H]1CN(C(=O)N2CCC(CC(=O)O)CC2)CCN1C(=O)N(C)[C@H](C)c1cc(C(F)(F)F)cc(C(F)(F)F)c1 [Example 10, {1-[(S)-4-{[(R)-1-(3,5-Bistrifluoromethylphenyl)ethyl]methylcarbamoyl}-3-(4-fluoro-2-methylphenyl)piperazine-1-carbonyl]piperidin-4-yl}acetic acid] |  | 1.17 | 30
Cc1cc(F)ccc1[C@H]1CN(CC23CC(C(=O)O)(C2)C3)CCN1C(=O)N(C)[C@H](C)c1cc(C(F)(F)F)cc(C(F)(F)F)c1 [Example 11, 3-[(S)-4-{[(R)-1-(3,5-Bistrifluoromethylphenyl)ethyl]methylcarbamoyl}-3-(4-fluoro-2-methylphenyl)piperazin-1-ylmethyl]bicyclo[1.1.1]pentane-1-carboxylic acid] |  | 1.91 | 24
Cc1cc(F)ccc1[C@H]1CN(C2CCC(CC(=O)O)CC2)CC[C@@H]1C(=O)N(C)[C@@H](C)c1cc(C(F)(F)F)cc(C(F)(F)F)c1 (stereo partly drawn) [Example 12, {4-[(3 S,4S)-4-{[(S)-1-(3,5-Bistrifluoromethylphenyl)ethyl]methylcarbamoyl}-3-(4-fluoro-2-methylphenyl)piperidin-1-yl]cyclohexyl}lacetic acid] |  | 0.282 | 4.9

Continued, values first:

Preincubation (30 min) (%) (enzyme activities relative to group without test compound) (human CYP3A4) | IC50 (human NK1 receptor [1]) [nM] | remaining activity at 1 µM (human NK1 receptor [2]) [%] | SMILES
 | 2.24 | 15 | Cc1cc(F)ccc1[C@H]1CN(C2CCC(CC(=O)O)CC2)CCN1C(=O)N(C)[C@H](C)c1cc(C(F)(F)F)cc(C(F)(F)F)c1 (stereo partly drawn) [Example 1, {4-[(S)-4-{[(R)-1-(3,5-Bistrifluoromethylphenyl)ethyl]methylcarbamoyl}-3-(4-fluoro-2-methylphenyl)piperazin-1-yl]cyclohexyl}acetic acid]
 | 1.38 | 25 | Cc1cc(F)ccc1[C@H]1CN(C(=O)[C@H]2CC[C@@H](CC(=O)O)CC2)CCN1C(=O)N(C)[C@H](C)c1cc(C(F)(F)F)cc(C(F)(F)F)c1 [Example 2, cis-{4-[(S)-4-{[(R)-1-(3,5-Bistrifluoromethylphenyl)ethyl]methylcarbamoyl}-3-(4-fluoro-2-methylphenyl)piperazine-1-carbonyl]cyclohexyl}acetic acid]
 | 1.41 | 50 | Cc1cc(F)ccc1[C@H]1CN(C(=O)[C@H]2CC[C@H](CC(=O)O)CC2)CCN1C(=O)N(C)[C@H](C)c1cc(C(F)(F)F)cc(C(F)(F)F)c1 [Example 3, trans-{4-[(S)-4-{[(R)-1-(3,5-Bistrifluoromethylphenyl)ethyl]methylcarbamoyl}-3-(4-fluoro-2-methylphenyl)piperazine-1-carbonyl]cyclohexyl}acetic acid]
 | 1.7 | 14 | Cc1cc(F)ccc1[C@H]1CN(C2CCC(C(=O)O)CC2)CCN1C(=O)N(C)[C@H](C)c1cc(C(F)(F)F)cc(C(F)(F)F)c1 (stereo partly drawn) [Example 6, 4-[(S)-4-{[(R)-1-(3,5-Bistrifluoromethylphenyl)ethyl]methylcarbamoyl}-3-(4-fluoro-2-methylphenyl)piperazin-1-yl]cyclohexanecarboxylic acid]
 | 2.04 | 6.6 | Cc1cc(F)ccc1[C@H]1CN(C[C@H]2CC[C@@H](C(=O)O)CC2)CCN1C(=O)N(C)[C@H](C)c1cc(C(F)(F)F)cc(C(F)(F)F)c1 [Example 7, cis-4-[(S)-4-{[(R)-1-(3,5-Bistrifluoromethylphenyl)ethyl]methylcarbamoyl}-3-(4-fluoro-2-methylphenyl)piperazin-1-ylmethyl]cyclohexanecarboxylic acid]
 | 1.86 | 14 | Cc1cc(F)ccc1[C@H]1CN(C[C@H]2CC[C@H](C(=O)O)CC2)CCN1C(=O)N(C)[C@H](C)c1cc(C(F)(F)F)cc(C(F)(F)F)c1 [Example 8, trans-4-[(S)-4-{[(R)-1-(3,5-Bistrifluoromethylphenyl)ethyl]methylcarbamoyl}-3-(4-fluoro-2-methylphenyl)piperazin-1-ylmethyl]cyclohexanecarboxylic acid]
